The values that follow come from PubChem BioAssay (NCI).

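Step 1: Grow cells in 96-well plates. Step 2: Expose to compound for 48 hours at 5 concentrations. Step 3: Interpolate endpoints linearly; if unreached, use highest concentration. GI50 is the concentration that inhibits growth by half. TGI: concentration producing complete growth inhibition.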

The first assay deals with NCI-H23 lung. The assay can be described thus: NCI anticancer screen, dose series, 48 h.
Regarding `N=C(N)c1nn(C2OC(CO)C(O)C2O)c2nc[nH]c(=O)c12` (stereo not given), the GI50 is 0.727 µM and the TGI was found to be 3.63 µM.

For `COc1ccc2c(c1)CCC1C2CCC2(C)C1CCC2(O)CNC(=O)CCCCC1CCSS1` (stereo not given), the GI50 is 20.8 µM and the TGI is over 100 µM.

Turning to `CC[C@H](Nc1nc(N)nc(C)c1C#N)c1nc2cccc(CN(C)c3ncc(C(=O)NO)cn3)c2c(=O)n1-c1ccccc1`, the GI50 was 1.14 µM and the TGI was found to be 5.32 µM.

Turning to `C=CCC(N[C@H](CO)C(C)C)c1cn(C(=O)OCC)c2ccccc12` (stereo not given in full), the GI50 was 19.1 µM and the TGI amounted to 49.3 µM.

Molecule `CC1=CC(=O)c2c(O)cccc2C1=O` had a TGI of 3.47 µM.

In the case of `CC1(C)CCC2(C(=O)OC3OC(CO)C(O)C(O)C3O)CC[C@]3(C)C(=CCC4C5(C)CC[C@H](OC6OC(C(=O)O)C(O)C(O)C6O)C(C)(C)C5CCC43C)C2C1` (stereo not given in full), the GI50 was 1.48 µM and the TGI was 3.73 µM.

Consider `COc1cc(Cn2cc3c(c2)-c2oncc2CC3)cc(OC)c1OC`, for which the GI50 was 0.048 µM and the TGI was over 69.7 µM.

Regarding `COc1ccc(C(=O)/C=C/c2ccc(Cl)cc2)cc1S(=O)(=O)Nc1c(N)nc(SC)[nH]c1=O`, the GI50 is 2.53 µM and the TGI was determined as 6.36 µM.

As to `O=S(=O)(c1ccc(NC(=S)NCc2cccnc2)cc1)N1CCCCC1`, the GI50 is 28.6 µM and the TGI was over 100 µM.

In the case of `O=C(O)CSSCC(=O)O`, the TGI is over 100 µM.

`CC(C)(C(=O)NN)c1ccccc1` came in with a TGI of over 100 µM.

On to `COc1cccc(C2=C(c3cn(C)c4ccccc34)C(=O)NC2=O)c1`, for which the GI50 was 13.9 µM and the TGI is over 25 µM.

In the case of `Fc1ccc2[nH]cc(Cc3c[nH]c4ccc(F)cc34)c2c1`, the GI50 was 22.2 µM and the TGI was 53.5 µM.

For `O=C(CCN1CCCC1)Nc1ccc2c(NCc3ccc(F)cc3)c3ccccc3nc2c1`, the GI50 was 0.413 µM and the TGI worked out at 1.67 µM.

In the case of `COc1cccc(OC(=O)c2ccccc2Nc2ccnc(C(F)(F)F)c2)c1`, the GI50 is 2.04 µM and the TGI was determined as 6.73 µM.

Consider `C=C1C(=O)O[C@@H]2C1CC(=O)C(C)CC/C=C(\C)CCC[C@H](C)[C@H]2OC(C)=O` (stereo not given in full), for which the GI50 was 13.9 µM and the TGI stood at 29.5 µM.

In the case of `CSc1nnc(CCSc2ccnc3c(C(F)(F)F)cccc23)o1`, the GI50 is over 100 µM and the TGI was over 100 µM.

As for `Fc1ccc(-c2nc3n(c2-c2ccncc2)CCS3)cc1`, the GI50 was over 25 µM and the TGI is over 25 µM.

As for `N#Cc1ncc(/N=C/c2ccc(N(CCCl)CCCl)cc2)s1`, the GI50 was 5.53 µM and the TGI was over 100 µM.

The next assay concerns U251 CNS. The assay can be described thus: NCI anticancer screen, dose series, 48 h.
Consider `N=C(N)c1nn(C2OC(CO)C(O)C2O)c2nc[nH]c(=O)c12` (stereo not given), for which the GI50 was 2.06 µM and the TGI is over 37.1 µM.

On to `COc1ccc2c(c1)CCC1C2CCC2(C)C1CCC2(O)CNC(=O)CCCCC1CCSS1` (stereo not given), for which the GI50 was 15.2 µM and the TGI is 56.6 µM.

Regarding `CC[C@H](Nc1nc(N)nc(C)c1C#N)c1nc2cccc(CN(C)c3ncc(C(=O)NO)cn3)c2c(=O)n1-c1ccccc1`, the GI50 was 0.663 µM and the TGI was 2.03 µM.

For the molecule `C=CCC(N[C@H](CO)C(C)C)c1cn(C(=O)OCC)c2ccccc12` (stereo not given in full), the GI50 was 27.4 µM and the TGI was over 100 µM.

Take `CC1=CC(=O)c2c(O)cccc2C1=O`: the TGI was 20.4 µM.

As to `CC1(C)CCC2(C(=O)OC3OC(CO)C(O)C(O)C3O)CC[C@]3(C)C(=CCC4C5(C)CC[C@H](OC6OC(C(=O)O)C(O)C(O)C6O)C(C)(C)C5CCC43C)C2C1` (stereo not given in full), the GI50 is 1.06 µM and the TGI came to 2.61 µM.

Take `COc1cc(Cn2cc3c(c2)-c2oncc2CC3)cc(OC)c1OC`: the GI50 was 0.0387 µM and the TGI was over 100 µM.

As to `COc1ccc(C(=O)/C=C/c2ccc(Cl)cc2)cc1S(=O)(=O)Nc1c(N)nc(SC)[nH]c1=O`, the GI50 was 1.58 µM and the TGI came to 3.12 µM.

With `O=S(=O)(c1ccc(NC(=S)NCc2cccnc2)cc1)N1CCCCC1`, the GI50 is 1.82 µM and the TGI was over 100 µM.

Molecule `O=C(O)CSSCC(=O)O` yielded a TGI of over 100 µM.

The molecule `CC(C)(C(=O)NN)c1ccccc1` displayed a TGI of over 100 µM.

For the molecule `COc1cccc(C2=C(c3cn(C)c4ccccc34)C(=O)NC2=O)c1`, the GI50 is 10.9 µM and the TGI is over 25 µM.

Take `Fc1ccc2[nH]cc(Cc3c[nH]c4ccc(F)cc34)c2c1`: the GI50 was 19.7 µM and the TGI is 44.8 µM.

For the molecule `O=C(CCN1CCCC1)Nc1ccc2c(NCc3ccc(F)cc3)c3ccccc3nc2c1`, the GI50 was 0.462 µM and the TGI came to 1.88 µM.

`COc1cccc(OC(=O)c2ccccc2Nc2ccnc(C(F)(F)F)c2)c1`: the GI50 was 2.86 µM and the TGI was 11 µM.

For `C=C1C(=O)O[C@@H]2C1CC(=O)C(C)CC/C=C(\C)CCC[C@H](C)[C@H]2OC(C)=O` (stereo not given in full), the GI50 is 13.9 µM and the TGI is 28.4 µM.

As to `CSc1nnc(CCSc2ccnc3c(C(F)(F)F)cccc23)o1`, the GI50 was over 100 µM and the TGI was over 100 µM.

Regarding `Fc1ccc(-c2nc3n(c2-c2ccncc2)CCS3)cc1`, the GI50 is over 25 µM and the TGI is over 25 µM.

In the case of `N#Cc1ncc(/N=C/c2ccc(N(CCCl)CCCl)cc2)s1`, the GI50 was 18.6 µM and the TGI is over 100 µM.

The subject of another assay is OVCAR-5 ovarian. Description: NCI anticancer screen, dose series, 48 h.
Regarding `N=C(N)c1nn(C2OC(CO)C(O)C2O)c2nc[nH]c(=O)c12` (stereo not given), the GI50 was 2.85 µM and the TGI stood at 14.2 µM.

Consider `COc1ccc2c(c1)CCC1C2CCC2(C)C1CCC2(O)CNC(=O)CCCCC1CCSS1` (stereo not given), for which the GI50 was over 100 µM and the TGI was over 100 µM.

`CC[C@H](Nc1nc(N)nc(C)c1C#N)c1nc2cccc(CN(C)c3ncc(C(=O)NO)cn3)c2c(=O)n1-c1ccccc1`: the GI50 is 0.678 µM and the TGI was determined as 3.05 µM.

Regarding `C=CCC(N[C@H](CO)C(C)C)c1cn(C(=O)OCC)c2ccccc12` (stereo not given in full), the GI50 was 48.6 µM and the TGI was over 100 µM.

Turning to `CC1=CC(=O)c2c(O)cccc2C1=O`, the TGI was determined as 3.78 µM.

With `CC1(C)CCC2(C(=O)OC3OC(CO)C(O)C(O)C3O)CC[C@]3(C)C(=CCC4C5(C)CC[C@H](OC6OC(C(=O)O)C(O)C(O)C6O)C(C)(C)C5CCC43C)C2C1` (stereo not given in full), the GI50 is 3.07 µM and the TGI was 9.41 µM.

Regarding `COc1cc(Cn2cc3c(c2)-c2oncc2CC3)cc(OC)c1OC`, the GI50 was 0.0735 µM and the TGI is over 100 µM.

As to `COc1ccc(C(=O)/C=C/c2ccc(Cl)cc2)cc1S(=O)(=O)Nc1c(N)nc(SC)[nH]c1=O`, the GI50 is 2.83 µM and the TGI was found to be 9.53 µM.

As to `O=S(=O)(c1ccc(NC(=S)NCc2cccnc2)cc1)N1CCCCC1`, the GI50 was 5.46 µM and the TGI is over 100 µM.

Consider `O=C(O)CSSCC(=O)O`, for which the TGI is over 100 µM.

As for `CC(C)(C(=O)NN)c1ccccc1`, the TGI was over 100 µM.

`COc1cccc(C2=C(c3cn(C)c4ccccc34)C(=O)NC2=O)c1`: the GI50 is over 25 µM and the TGI was over 25 µM.

For `Fc1ccc2[nH]cc(Cc3c[nH]c4ccc(F)cc34)c2c1`, the GI50 is 17.5 µM and the TGI is 38 µM.

`O=C(CCN1CCCC1)Nc1ccc2c(NCc3ccc(F)cc3)c3ccccc3nc2c1`: the GI50 was 0.48 µM and the TGI came to 2.01 µM.

For `COc1cccc(OC(=O)c2ccccc2Nc2ccnc(C(F)(F)F)c2)c1`, the GI50 was 3.53 µM and the TGI came out at 35.6 µM.

In the case of `C=C1C(=O)O[C@@H]2C1CC(=O)C(C)CC/C=C(\C)CCC[C@H](C)[C@H]2OC(C)=O` (stereo not given in full), the GI50 was 18 µM and the TGI came to 34.6 µM.

For the molecule `CSc1nnc(CCSc2ccnc3c(C(F)(F)F)cccc23)o1`, the GI50 is over 100 µM and the TGI was over 100 µM.

In the case of `Fc1ccc(-c2nc3n(c2-c2ccncc2)CCS3)cc1`, the GI50 was over 25 µM and the TGI is over 25 µM.

Regarding `N#Cc1ncc(/N=C/c2ccc(N(CCCl)CCCl)cc2)s1`, the GI50 was 17.5 µM and the TGI was over 100 µM.

The next assay relates to UACC-257 melanoma. Description: NCI anticancer screen, dose series, 48 h.
With `N=C(N)c1nn(C2OC(CO)C(O)C2O)c2nc[nH]c(=O)c12` (stereo not given), the GI50 was 0.292 µM and the TGI was 1.29 µM.

As to `COc1ccc2c(c1)CCC1C2CCC2(C)C1CCC2(O)CNC(=O)CCCCC1CCSS1` (stereo not given), the GI50 was 31.9 µM and the TGI is over 100 µM.

In the case of `CC[C@H](Nc1nc(N)nc(C)c1C#N)c1nc2cccc(CN(C)c3ncc(C(=O)NO)cn3)c2c(=O)n1-c1ccccc1`, the GI50 is 0.36 µM and the TGI was 3.11 µM.

For the molecule `C=CCC(N[C@H](CO)C(C)C)c1cn(C(=O)OCC)c2ccccc12` (stereo not given in full), the GI50 is 18.3 µM and the TGI stood at 44.2 µM.

`CC1=CC(=O)c2c(O)cccc2C1=O` yielded a TGI of 3.27 µM.

In the case of `CC1(C)CCC2(C(=O)OC3OC(CO)C(O)C(O)C3O)CC[C@]3(C)C(=CCC4C5(C)CC[C@H](OC6OC(C(=O)O)C(O)C(O)C6O)C(C)(C)C5CCC43C)C2C1` (stereo not given in full), the GI50 is 4.18 µM and the TGI was 15.4 µM.

In the case of `COc1cc(Cn2cc3c(c2)-c2oncc2CC3)cc(OC)c1OC`, the GI50 is 1.16 µM and the TGI was determined as 51.7 µM.

With `COc1ccc(C(=O)/C=C/c2ccc(Cl)cc2)cc1S(=O)(=O)Nc1c(N)nc(SC)[nH]c1=O`, the GI50 was 8.27 µM and the TGI stood at 21.4 µM.

As for `O=S(=O)(c1ccc(NC(=S)NCc2cccnc2)cc1)N1CCCCC1`, the GI50 was 42.6 µM and the TGI was over 100 µM.

`O=C(O)CSSCC(=O)O`: the TGI was over 100 µM.

Molecule `CC(C)(C(=O)NN)c1ccccc1` returned a TGI of over 100 µM.

For the molecule `COc1cccc(C2=C(c3cn(C)c4ccccc34)C(=O)NC2=O)c1`, the GI50 was 15.7 µM and the TGI is over 25 µM.

Regarding `Fc1ccc2[nH]cc(Cc3c[nH]c4ccc(F)cc34)c2c1`, the GI50 is 15.7 µM and the TGI worked out at 30.8 µM.

`O=C(CCN1CCCC1)Nc1ccc2c(NCc3ccc(F)cc3)c3ccccc3nc2c1`: the GI50 was 1.74 µM and the TGI turned out to be 3.54 µM.

On to `COc1cccc(OC(=O)c2ccccc2Nc2ccnc(C(F)(F)F)c2)c1`, for which the GI50 was 5.37 µM and the TGI stood at 32.4 µM.

`C=C1C(=O)O[C@@H]2C1CC(=O)C(C)CC/C=C(\C)CCC[C@H](C)[C@H]2OC(C)=O` (stereo not given in full): the GI50 is 18.4 µM and the TGI stood at 36.6 µM.

In the case of `CSc1nnc(CCSc2ccnc3c(C(F)(F)F)cccc23)o1`, the GI50 is over 100 µM and the TGI was over 100 µM.

On to `Fc1ccc(-c2nc3n(c2-c2ccncc2)CCS3)cc1`, for which the GI50 was over 25 µM and the TGI was over 25 µM.

With `N#Cc1ncc(/N=C/c2ccc(N(CCCl)CCCl)cc2)s1`, the GI50 was 13.3 µM and the TGI amounted to 63 µM.
